These results are taken from patent US10399940B2, “Substituted pyrrolidines and methods of use” (AbbVie S.à.r.l., priority 2016, dated 2019).

What is called EC50 is the concentration at which the effect is half-maximal.

In the experiment the target is T1, F508delCFTR (Homo sapiens, UniProt P13569, DEL508-508).
T1 construct: expressed in transfected cells; host or cells: CFBE41o- (human lung derived epithelial cell line), doxycycline-inducible expression
The experiment in a line: Cell Surface Expression-Horse Radish Peroxidase (CSE-HRP) assay. The format is cell-based. To be noted: CFBE41o-F508delCFTR-HRP cells; for Maximum % activity (with co-corrector): with co-corrector (2 μM); for Maximum % activity (with co-corrector) / Maximum % activity (without co-corrector): normalized to on-plate positive control, highest concentration 20 μM. The gist of the method:
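CFBE41o- cells expressed F508delCFTR with HRP in the fourth exofacial loop, induced by 0.5 μg/mL doxycycline for 72 h at 37 °C. Compounds alone or with 2 μM co-corrector ran 18–24 h at 33 °C, 8-point 3-fold from 20 μM. Washed-cell luminol luminescence was normalized to DMSO and positive control, fitted sigmoidally for EC50 (three plates).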

Where [1] appears, read: test compound without co-corrector, 18-24 hours at 33° C., read-out: EC50 (without co-corrector).
The mark [2] stands for this setting: with co-corrector (2 μM of 3-[(2R,4R)-4-({[1-(2,2-difluoro-1,3-benzodioxol-5-yl)cyclopropyl]carbonyl}amino)-7-methoxy-3,4-dihydro-2H-chromen-2-yl]benzoic acid), read-out: EC50 (with co-corrector).

Where two headings read alike, the source gives them in different places. Some results are limits rather than exact numbers.

T1 sequence (P13569 with tags, fused parts or gaps DEL508-508): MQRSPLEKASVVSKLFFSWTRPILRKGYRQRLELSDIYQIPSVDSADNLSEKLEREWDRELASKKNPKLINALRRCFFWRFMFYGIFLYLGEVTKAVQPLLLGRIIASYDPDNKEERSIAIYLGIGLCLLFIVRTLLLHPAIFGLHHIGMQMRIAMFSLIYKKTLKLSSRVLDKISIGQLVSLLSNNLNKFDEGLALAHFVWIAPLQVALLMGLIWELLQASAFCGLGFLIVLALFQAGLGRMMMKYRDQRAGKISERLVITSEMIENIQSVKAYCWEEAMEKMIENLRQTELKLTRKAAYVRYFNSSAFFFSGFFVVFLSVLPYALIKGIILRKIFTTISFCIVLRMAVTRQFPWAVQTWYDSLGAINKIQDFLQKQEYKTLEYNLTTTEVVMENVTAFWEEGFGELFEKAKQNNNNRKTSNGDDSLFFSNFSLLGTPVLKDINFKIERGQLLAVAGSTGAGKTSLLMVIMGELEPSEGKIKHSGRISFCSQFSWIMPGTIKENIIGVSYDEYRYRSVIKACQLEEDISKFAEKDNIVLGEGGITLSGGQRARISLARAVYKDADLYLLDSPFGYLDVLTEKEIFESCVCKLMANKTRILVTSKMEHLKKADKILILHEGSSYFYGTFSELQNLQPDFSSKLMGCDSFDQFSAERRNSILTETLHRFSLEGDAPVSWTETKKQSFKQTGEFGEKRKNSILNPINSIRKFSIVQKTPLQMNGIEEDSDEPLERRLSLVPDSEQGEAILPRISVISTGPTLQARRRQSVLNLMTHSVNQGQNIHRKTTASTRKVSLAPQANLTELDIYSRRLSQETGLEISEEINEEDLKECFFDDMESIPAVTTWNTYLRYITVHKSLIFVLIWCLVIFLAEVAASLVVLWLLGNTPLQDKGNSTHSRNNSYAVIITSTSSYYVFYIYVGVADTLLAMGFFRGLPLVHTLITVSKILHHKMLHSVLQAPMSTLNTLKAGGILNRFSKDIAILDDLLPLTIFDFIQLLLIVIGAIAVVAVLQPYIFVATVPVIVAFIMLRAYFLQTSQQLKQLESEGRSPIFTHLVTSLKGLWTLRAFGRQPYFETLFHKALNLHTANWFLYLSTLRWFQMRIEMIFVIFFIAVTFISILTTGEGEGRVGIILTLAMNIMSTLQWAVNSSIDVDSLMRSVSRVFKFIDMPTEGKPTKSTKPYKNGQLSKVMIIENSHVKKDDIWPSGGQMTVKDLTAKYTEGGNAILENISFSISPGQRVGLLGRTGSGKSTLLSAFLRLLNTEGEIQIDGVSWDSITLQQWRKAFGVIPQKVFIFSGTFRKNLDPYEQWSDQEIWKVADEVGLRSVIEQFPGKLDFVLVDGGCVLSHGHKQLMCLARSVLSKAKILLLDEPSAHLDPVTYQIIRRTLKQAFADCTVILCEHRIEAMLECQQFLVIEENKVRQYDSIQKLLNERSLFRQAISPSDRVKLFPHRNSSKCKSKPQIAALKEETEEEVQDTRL

For the compound `COc1ncc(C(F)(F)F)cc1CO[C@H]1[C@H](C(C)(C)C)[C@@H](C(=O)O)N(C(=O)[C@@H]2CCCCO2)[C@H]1c1ccccc1C(C)C` [Example 96, (2S,3R,4S,5S)-3-tert-butyl-4-{[2-methoxy-5-(trifluoromethyl)pyridin-3-yl]methoxy}-1-[(2S)-oxane-2-carbonyl]-5-[2-(propan-2-yl)phenyl]pyrrolidine-2-carboxylic acid], the “Maximum % activity (with co-corrector)” value was “+++ (≥350)” and the “Maximum % activity (without co-corrector)” value is “+++ (≥200)”. In addition, the EC50 under setting [1] was < 1000 nM. In addition, the EC50 under setting [2] was < 1000 nM.
For the compound `COc1ncc(C(F)(F)F)cc1CO[C@H]1[C@H](C(C)(C)C)[C@@H](C(=O)O)N(C(=O)[C@H]2CCCCO2)[C@H]1c1ccccc1C(C)C` [Example 97, (2S,3R,4S,5S)-3-tert-butyl-4-{[2-methoxy-5-(trifluoromethyl)pyridin-3-yl]methoxy}-1-[(2R)-oxane-2-carbonyl]-5-[2-(propan-2-yl)phenyl]pyrrolidine-2-carboxylic acid], the “Maximum % activity (with co-corrector)” value was “+++ (≥350)”; the “Maximum % activity (without co-corrector)” value was “++ (≥100 and <200)”. For the same compound, the EC50 under setting [1] lay in the range of 1000 to 10000 nM. Further, under setting [2], the EC50 was in the range of 1000 to 10000 nM.
For `COc1ncc(C(F)(F)F)cc1CO[C@H]1[C@H](C(C)(C)C)[C@@H](C(=O)O)N(C(=O)[C@@H]2CCCO2)[C@H]1c1ccccc1C(C)C` [Example 98, (2S,3R,4S,5S)-3-tert-butyl-4-{[2-methoxy-5-(trifluoromethyl)pyridin-3-yl]methoxy}-1-[(2S)-oxolane-2-carbonyl]-5-[2-(propan-2-yl)phenyl]pyrrolidine-2-carboxylic acid], the “Maximum % activity (with co-corrector)” value is recorded as “+++ (≥350)”; the “Maximum % activity (without co-corrector)” value is “++ (≥100 and <200)”. Moreover, the EC50 under setting [1] is < 1000 nM. For the same compound, the EC50 under setting [2] is < 1000 nM.
`COc1ncc(C(F)(F)F)cc1CO[C@H]1[C@H](C(C)(C)C)[C@@H](C(=O)O)N(C(=O)OC(C)C)[C@H]1c1ccccc1Cl` [Example 99, (2S,3R,4S,5S)-3-tert-butyl-5-(2-chlorophenyl)-4-{[2-methoxy-5-(trifluoromethyl)pyridin-3-yl]methoxy}-1-{[(propan-2-yl)oxy]carbonyl}pyrrolidine-2-carboxylic acid]: the “Maximum % activity (with co-corrector)” value is “+++ (≥350)”; the “Maximum % activity (without co-corrector)” value was “++ (≥100 and <200)”. For the same compound, the EC50 under setting [1] was in the range of 1000 to 10000 nM. Also, under setting [2], the EC50 is 1000 to 10000 nM.
Regarding `COc1cnc(C2CCC2)cc1CO[C@H]1[C@H](C(C)(C)C)[C@@H](C(=O)O)N(C(=O)OC(C)C)[C@H]1c1ccccc1` [Example 100, (2S,3R,4S,5S)-3-tert-butyl-4-[(2-cyclobutyl-5-methoxypyridin-4-yl)methoxy]-5-phenyl-1-{[(propan-2-yl)oxy]carbonyl}pyrrolidine-2-carboxylic acid], the “Maximum % activity (with co-corrector)” value is “++ (≥150 and <350)”; the “Maximum % activity (without co-corrector)” value is recorded as “+ (<100)”. Besides, the EC50 under setting [1] lay in the range of 1000 to 10000 nM. Besides, under setting [2], the EC50 fell in the range of 1000 to 10000 nM.
On to `COc1ncc(C(F)(F)F)cc1CO[C@H]1[C@H](C(C)(C)C)[C@@H](C(=O)O)N(C(=O)OC(C)C)[C@H]1c1ccccc1C1CCC1` [Example 101, (2S,3R,4S,5S)-3-tert-butyl-5-(2-cyclobutylphenyl)-4-{[2-methoxy-5-(trifluoromethyl)pyridin-3-yl]methoxy}-1-{[(propan-2-yl)oxy]carbonyl}pyrrolidine-2-carboxylic acid], for which the “Maximum % activity (with co-corrector)” value is on record as “+++ (≥350)”; the “Maximum % activity (without co-corrector)” value is “++ (≥100 and <200)”. Besides, the EC50 under setting [1] fell in the range of 1000 to 10000 nM. Moreover, the EC50 under setting [2] is 1000 to 10000 nM.
For the compound `COc1ncc(C(F)(F)F)cc1CO[C@H]1[C@H](C(C)(C)C)[C@@H](C(=O)O)N(C(=O)[C@H]2CCCO2)[C@H]1c1ccccc1C(C)C` [Example 102, (2S,3R,4S,5S)-3-tert-butyl-4-{[2-methoxy-5-(trifluoromethyl)pyridin-3-yl]methoxy}-1-[(2R)-oxolane-2-carbonyl]-5-[2-(propan-2-yl)phenyl]pyrrolidine-2-carboxylic acid], the “Maximum % activity (with co-corrector)” value was “++ (≥150 and <350)”; the “Maximum % activity (without co-corrector)” value is given as “+ (<100)”. Further, the EC50 under setting [1] lay within 1000 to 10000 nM. Moreover, the EC50 under setting [2] was 1000 to 10000 nM.
For the compound `COc1ncc(C(F)(F)F)cc1CO[C@H]1[C@H](C(C)(C)C)[C@@H](C(=O)O)N(C(=O)[C@@H]2CCCCO2)[C@H]1c1ccccc1Cl` [Example 103, (2S,3R,4S,5S)-3-tert-butyl-5-(2-chlorophenyl)-4-{[2-methoxy-5-(trifluoromethyl)pyridin-3-yl]methoxy}-1-[(2S)-oxane-2-carbonyl]pyrrolidine-2-carboxylic acid], the “Maximum % activity (with co-corrector)” value is “+++ (≥350)”; the “Maximum % activity (without co-corrector)” value is “++ (≥100 and <200)”. For the same compound, the concentration for a half-maximal effect (EC50) under setting [1] lay in the range of 1000 to 10000 nM. For the same compound, under setting [2], the EC50 was < 1000 nM.
As to `COc1ncc(C(F)(F)F)cc1CO[C@H]1[C@H](C(C)(C)C)[C@@H](C(=O)O)N(C(=O)[C@H]2CCCCO2)[C@H]1c1ccccc1Cl` [Example 104, (2S,3R,4S,5S)-3-tert-butyl-5-(2-chlorophenyl)-4-{[2-methoxy-5-(trifluoromethyl)pyridin-3-yl]methoxy}-1-[(2R)-oxane-2-carbonyl]pyrrolidine-2-carboxylic acid], the “Maximum % activity (with co-corrector)” value is listed as “+++ (≥350)”; the “Maximum % activity (without co-corrector)” value is “++ (≥100 and <200)”. The EC50 under setting [1] lay within 1000 to 10000 nM. For the same compound, the concentration for a half-maximal effect (EC50) under setting [2] was 1000 to 10000 nM.
As for `COc1ncc(C(F)(F)F)cc1CO[C@H]1[C@H](C(C)(C)C)[C@@H](C(=O)O)N(C(=O)OC(C)C)[C@H]1c1ccccc1OC(C)C` [Example 105, (2S,3R,4S,5S)-3-tert-butyl-4-{[2-methoxy-5-(trifluoromethyl)pyridin-3-yl]methoxy}-1-{[(propan-2-yl)oxy]carbonyl}-5-{2-[(propan-2-yl)oxy]phenyl}pyrrolidine-2-carboxylic acid], the “Maximum % activity (with co-corrector)” value was “+++ (≥350)”; the “Maximum % activity (without co-corrector)” value is “++ (≥100 and <200)”. Under setting [1], the EC50 was < 1000 nM. In addition, under setting [2], the EC50 is < 1000 nM.
As to `COc1nc2ccccc2cc1CO[C@H]1[C@H](C(C)(C)C)[C@@H](C(=O)O)N(C(=O)OC(C)C)[C@H]1c1ccccc1` [Example 106, (2S,3R,4S,5S)-3-tert-butyl-4-[(2-methoxyquinolin-3-yl)methoxy]-5-phenyl-1-{[(propan-2-yl)oxy]carbonyl}pyrrolidine-2-carboxylic acid], the “Maximum % activity (with co-corrector)” value is “++ (≥150 and <350)”; the “Maximum % activity (without co-corrector)” value is given as “+ (<100)”. Further, the EC50 under setting [1] was in the range of 1000 to 10000 nM. Under setting [2], the concentration giving a half-maximal response (EC50) is 1000 to 10000 nM.
For the compound `CC(C)OC(=O)N1[C@H](C(=O)O)[C@@H](C(C)(C)C)[C@H](OCc2cc(C(F)(F)F)cnc2O)[C@@H]1c1ccccc1` [Example 107, (2S,3R,4S,5S)-3-tert-butyl-4-{[2-hydroxy-5-(trifluoromethyl)pyridin-3-yl]methoxy}-5-phenyl-1-{[(propan-2-yl)oxy]carbonyl}pyrrolidine-2-carboxylic acid], the “Maximum % activity (with co-corrector)” value was “++ (≥150 and <350)”; the “Maximum % activity (without co-corrector)” value is recorded as “+ (<100)”. Also, the concentration giving a half-maximal response (EC50) under setting [1] lay within 1000 to 10000 nM. In addition, under setting [2], the EC50 lay in the range of 1000 to 10000 nM.
Take `COc1ncc(C(F)(F)F)cc1CO[C@H]1[C@H](C(C)(C)C)[C@@H](C(=O)O)N(C(=O)OC(C)C)[C@H]1c1ccccc1C1=CCOCC1` [Example 108, (2S,3R,4S,5S)-3-tert-butyl-5-[2-(3,6-dihydro-2H-pyran-4-yl)phenyl]-4-{[2-methoxy-5-(trifluoromethyl)pyridin-3-yl]methoxy}-1-{[(propan-2-yl)oxy]carbonyl}pyrrolidine-2-carboxylic acid]: the “Maximum % activity (with co-corrector)” value was “+++ (≥350)”; the “Maximum % activity (without co-corrector)” value is “++ (≥100 and <200)”. In addition, the EC50 under setting [1] lay in the range of 1000 to 10000 nM. The EC50 under setting [2] is 1000 to 10000 nM.
On to `COc1ncc(C(F)(F)F)cc1CO[C@H]1[C@H](C(C)(C)C)[C@@H](C(=O)O)N(C(=O)[C@H]2CCOC2)[C@H]1c1ccccc1C(C)C` [Example 109, (2S,3R,4S,5S)-3-tert-butyl-4-{[2-methoxy-5-(trifluoromethyl)pyridin-3-yl]methoxy}-1-[(3S)-oxolane-3-carbonyl]-5-[2-(propan-2-yl)phenyl]pyrrolidine-2-carboxylic acid], for which the “Maximum % activity (with co-corrector)” value is “++ (≥150 and <350)”; the “Maximum % activity (without co-corrector)” value is reported as “+ (<100)”. The EC50 under setting [1] was in the range of 1000 to 10000 nM. Under setting [2], the EC50 fell in the range of 1000 to 10000 nM.
`COc1ncc(C(F)(F)F)cc1CO[C@H]1[C@H](C(C)(C)C)[C@@H](C(=O)O)N(C(=O)C2CCOCC2)[C@H]1c1ccccc1C(C)C` [Example 110, (2S,3R,4S,5S)-3-tert-butyl-4-{[2-methoxy-5-(trifluoromethyl)pyridin-3-yl]methoxy}-1-(oxane-4-carbonyl)-5-[2-(propan-2-yl)phenyl]pyrrolidine-2-carboxylic acid]: the “Maximum % activity (with co-corrector)” value is on record as “+++ (≥350)”; the “Maximum % activity (without co-corrector)” value is “++ (≥100 and <200)”. Also, under setting [1], the EC50 was 1000 to 10000 nM. Moreover, under setting [2], the concentration for a half-maximal effect (EC50) lay within 1000 to 10000 nM.
